Results published in patent publication US12569536B2, “Macrocyclic peptides for targeted inhibition of autophagy” (Board of Regents, The University of Texas System, priority 2019, dated 2026).
Bridge positions count the residues as written; N and C are the ends. Square brackets hold non-standard residues; d marks the D form. Primed or numbered codes have the meaning given here. Ends that are not written are not given here. DSG″ = disuccinimidyl glutarate, a bis-NHS cross-linker that leaves a glutaryl bridge between two amines; NMeA = CN[C@@H](C)C(=O)O

Tested on: HeLa cells stably transfected with a GFP-LC3 fusion
Format: cell-based
Conditions: HeLa starved in Hank's Balanced Salt Solution
Text: FIG. 11: Confocal microscopy of SUPR 4B1W-Rox in autophagic HeLa cells. A line of HeLa cells was stably transfected with a GFP-LC3 fusion. When starved for 2+ hours in Hank's Balanced Salt Solution, these cells become autophagic and GFP signal becomes punctate as GFP-LC3 fusions are embedded in the autophagosome.

In the case of “SUPR 4B1W-ROX: SUPR 4B1W conjugated to the fluorophore ROX (MWPHRVTA[NMeA]K; bridge N-10 via DSG″; also: conjugated to fluorophore ROX, site not given here)”, the “co-localization with GFP-LC3” value is reported as “Significant co-localization of ROX and GFP signal”.
